In brackets after ≈: the same amount, converted by molar mass. Several values for one entry are separate records, joined by “and”; a condition that tells them apart may be missing. Equal values may be shown once. Each block holds one compound with its values, some of them ahead of it.
Experiments:
Assay in all cases: ≥ marks a high value that may be exact or a test limit, other limits are often not marked, values filed in µg/mL are converted to µM
[1] = test system: Staphylococcus aureus ATCC 12600
[2] = test system: Candida albicans ATCC 14053
[3] = test system: Escherichia coli ATCC 11775
[4] = test system: Micrococcus luteus ATCC 49732
[5] = test system: Pseudomonas aeruginosa ATCC 27853
[6] = test system: Acinetobacter baumannii KCTC 2508
[7] = test system: Klebsiella pneumoniae KCTC 2208
[8] = test system: Candida albicans ATCC 10231
[9] = test system: Escherichia coli ATCC 25922
[10] = test system: Staphylococcus epidermidis KCTC 1917
[11] = test system: Enterococcus faecalis ATCC 29212
[12] = test system: Pseudomonas aeruginosa ATCC 15422
[13] = test system: Pseudomonas aeruginosa ATCC 47085
[14] = test system: Staphylococcus aureus ATCC 25923
[15] = test system: Pseudomonas aeruginosa ATCC 15442
[16] = test system: Staphylococcus aureus ATCC 43300
[17] = test system: Pseudomonas aeruginosa PAO1
Escherichia coli D31 = test system: Escherichia coli D31
[18] = test system: Streptococcus mutans ATCC 25175
Staphylococcus aureus MR = test system: Staphylococcus aureus MR
[19] = test system: Bacillus subtilis ATCC 6633
Staphylococcus aureus = test system: Staphylococcus aureus
[20] = test system: Staphylococcus epidermidis
[21] = test system: Candida albicans F7-39/IDE99
Bacillus subtilis 168 = test system: Bacillus subtilis 168
[22] = test system: Micrococcus luteus CCM 144
Pseudomonas aeruginosa = test system: Pseudomonas aeruginosa
Staphylococcus aureus 1 = test system: Staphylococcus aureus 1
Escherichia coli B = test system: Escherichia coli B
Micrococcus luteus A270 = test system: Micrococcus luteus A270
Escherichia coli SBS 363 = test system: Escherichia coli SBS 363
Candida albicans MDM8 = test system: Candida albicans MDM8

MIC [1]: ≥ 97 µM | MIC [2]: ≥ 291 µM | MIC [3]: ≥ 97 µM | MIC [4]: ≥ 97 µM
Compound: CC(C)C[C@H](NC(=O)[C@H](CO)NC(=O)[C@@H](NC(=O)[C@@H](N)CCC(=O)O)C(C)C)C(=O)N[C@@H](CC(N)=O)C(=O)N[C@@H](CO)C(=O)NCC(=O)N[C@@H](Cc1ccc(O)cc1)C(=O)N[C@@H](Cc1ccc(O)cc1)C(=O)O [EVSLNSGYY]

MIC [5]: 2 µM (≈ 5.81 µg/mL) | MIC [6]: 4 µM (≈ 11.6 µg/mL) | MIC [7]: 4 µM (≈ 11.6 µg/mL)
Compound: CC[C@H](C)[C@H](N)C(=O)N[C@@H](C)C(=O)N[C@@H](CCCN=C(N)N)C(=O)N[C@@H](CCCN=C(N)N)C(=O)N[C@@H](C)C(=O)N[C@@H](CC(C)C)C(=O)N[C@@H](CCCCN)C(=O)N[C@@H](CCCCN)C(=O)N[C@@H](C)C(=O)N[C@@H](CCCCN)C(=O)N[C@@H](CCCN=C(N)N)C(=O)N[C@@H](C)C(=O)N[C@@H](C)C(=O)N[C@@H](Cc1cnc[nH]1)C(=O)N[C@H](C(=O)N[C@H](C(=O)N1CCC[C@H]1C(=O)N[C@@H](CCC(N)=O)C(=O)N[C@@H](CS)C(=O)N[C@@H](CCCCN)C(=O)N[C@@H](CCCCN)C(=O)N[C@@H](Cc1ccccc1)C(=O)NCC(=O)N[C@@H](CCCN=C(N)N)C(=O)N[C@@H](CCCN=C(N)N)C(N)=O)[C@@H](C)CC)[C@@H](C)O [IARRALKKAKRAAHTIPQCKKFGRR]

MIC [5]: 8 µM (≈ 23.9 µg/mL) | MIC [6]: 4 µM (≈ 12 µg/mL) | MIC [7]: 4 µM (≈ 12 µg/mL)
Compound: CC[C@H](C)[C@H](N)C(=O)N[C@@H](C)C(=O)N[C@@H](CCCN=C(N)N)C(=O)N[C@@H](CCCN=C(N)N)C(=O)N[C@@H](C)C(=O)N[C@@H](CC(C)C)C(=O)N[C@@H](CCCCN)C(=O)N[C@@H](CCCCN)C(=O)N[C@@H](CO)C(=O)N[C@@H](CC(C)C)C(=O)N[C@@H](CCCN=C(N)N)C(=O)N[C@@H](C)C(=O)N[C@@H](CCCN=C(N)N)C(=O)N[C@@H](Cc1cnc[nH]1)C(=O)N[C@H](C(=O)N[C@H](C(=O)N1CCC[C@H]1C(=O)N[C@@H](CCC(N)=O)C(=O)N[C@@H](CS)C(=O)N[C@@H](CCCCN)C(=O)N[C@@H](CCCCN)C(=O)N[C@@H](Cc1ccccc1)C(=O)NCC(=O)N[C@@H](CCCN=C(N)N)C(=O)N[C@@H](CCCN=C(N)N)C(N)=O)[C@@H](C)CC)[C@@H](C)O [IARRALKKSLRARHTIPQCKKFGRR]

MIC [8]: > 500 µM | MIC [9]: > 500 µM | MIC [10]: ≥ 267 µM | MIC [11]: 422 µM and 405 µM and 252 µM | MIC [12]: ≥ 500 µM
Compound: CC(C)C[C@H](NC(=O)CNC(=O)[C@H](Cc1ccc(O)cc1)NC(=O)[C@H](C)NC(=O)[C@@H]1CCCN1C(=O)[C@H](CC(C)C)NC(=O)[C@H](CCC(=O)O)NC(=O)[C@H](Cc1ccccc1)NC(=O)[C@H](Cc1cnc[nH]1)NC(=O)[C@H](CO)NC(=O)[C@@H](N)CCCCN)C(=O)O [KSHFELPAYGL]

MIC [13]: 27 µM (≈ 63.6 µg/mL) | MIC [14]: 13.6 µM (≈ 32 µg/mL)
Compound: CC[C@H](C)[C@H](NC(=O)[C@H](CCCN=C(N)N)NC(=O)[C@H](CCC(N)=O)NC(=O)[C@@H](NC(=O)[C@@H](NC(=O)[C@@H](N)CCCN=C(N)N)[C@@H](C)CC)C(C)C)C(=O)N[C@@H](CC(C)C)C(=O)N[C@@H](CCCCN)C(=O)N[C@@H](Cc1c[nH]c2ccccc12)C(=O)N[C@@H](CC(C)C)C(=O)N[C@@H](CCCCN)C(=O)N[C@@H](CCCCN)C(=O)N[C@@H](Cc1c[nH]c2ccccc12)C(=O)N[C@@H](Cc1ccc(O)cc1)C(=O)N[C@@H](CCCCN)C(=O)N[C@@H](CC(C)C)C(=O)NCC(=O)N[C@@H](CCCCN)C(N)=O [RIVQRILKWLKKWYKLGK]

MIC [15]: 6.2 µM (≈ 8.97 µg/mL) | MIC [16]: 6.2 µM (≈ 8.97 µg/mL) | MIC [17]: 12.5 µM (≈ 18.1 µg/mL) | MIC (Escherichia coli D31): 12.5 µM (≈ 18.1 µg/mL) | MIC [18]: 3.1 µM (≈ 4.49 µg/mL) | MIC [8]: 25 µM (≈ 36.2 µg/mL) | MIC [9]: 6.2 µM (≈ 8.97 µg/mL) | MIC (Staphylococcus aureus MR): 6.2 µM (≈ 8.97 µg/mL) | MIC [19]: 12.5 µM (≈ 18.1 µg/mL) | MIC [14]: 1.6 µM (≈ 2.31 µg/mL)
Compound: CC[C@H](C)[C@H](NC(=O)[C@H](CCCCN)NC(=O)[C@H](CCC(N)=O)NC(=O)[C@H](CC(C)C)NC(=O)[C@@H](N)Cc1ccccc1)C(=O)N[C@H](C(=O)NCC(=O)N[C@@H](C)C(=O)N[C@@H](CC(C)C)C(=O)NCC(=O)N[C@@H](CCCCN)C(=O)N[C@@H](CC(C)C)C(=O)N[C@@H](Cc1ccccc1)C(N)=O)[C@@H](C)CC [FLQKIIGALGKLF]

MIC [1]: 31 µM (≈ 22.3 µg/mL) | MIC [2]: ≥ 201 µM | MIC [3]: 31 µM (≈ 22.3 µg/mL) | MIC [4]: 31 µM (≈ 22.3 µg/mL)
Compound: CC(C)[C@H](NC(=O)[C@H](C)NC(=O)[C@@H](NC(=O)CNC(=O)[C@@H]1CCCN1)[C@@H](C)O)C(=O)N[C@@H](Cc1ccccc1)C(=O)N[C@@H](CCCCN)C(=O)O [PGTAVFK]

MIC (Staphylococcus aureus): 20 µM (≈ 36.5 µg/mL) | MIC [16]: 20 µM (≈ 36.5 µg/mL) | MIC [20]: 2.7 µM (≈ 4.93 µg/mL) | MIC [21]: 11 µM (≈ 20.1 µg/mL) | MIC (Bacillus subtilis 168): 7 µM (≈ 12.8 µg/mL) | MIC [5]: 5 µM (≈ 9.13 µg/mL) | MIC [22]: 3 µM (≈ 5.48 µg/mL) | MIC (Pseudomonas aeruginosa): 7.1 µM (≈ 13 µg/mL) | MIC (Staphylococcus aureus 1): 7.8 µM (≈ 14.2 µg/mL) | MIC (Escherichia coli B): 7.5 µM (≈ 13.7 µg/mL)
Compound: CC[C@H](C)[C@H](NC(=O)CN)C(=O)N[C@@H](CC(C)C)C(=O)N[C@@H](CO)C(=O)N[C@@H](CO)C(=O)N[C@@H](CC(C)C)C(=O)N[C@@H](CC(C)C)C(=O)N[C@@H](CCCCN)C(=O)N[C@@H](CCCCN)C(=O)N[C@@H](Cc1c[nH]c2ccccc12)C(=O)N[C@@H](CCCCN)C(=O)N[C@@H](CCCCN)C(=O)N[C@H](C(=O)N[C@H](C(=O)N[C@@H](C)C(=O)N[C@@H](CCCCN)C(N)=O)[C@@H](C)CC)[C@@H](C)CC [GILSSLLKKWKKIIAK]

MIC [13]: ≥ 55 µM | MIC [14]: 13.7 µM (≈ 30.5 µg/mL)
Compound: CC[C@H](C)[C@H](NC(=O)[C@H](CCCN=C(N)N)NC(=O)[C@H](CCC(N)=O)NC(=O)[C@@H](NC(=O)[C@@H](NC(=O)[C@@H](N)CCCN=C(N)N)[C@@H](C)CC)C(C)C)C(=O)N[C@@H](C)C(=O)N[C@@H](CCCCN)C(=O)N[C@@H](Cc1c[nH]c2ccccc12)C(=O)N[C@@H](C)C(=O)N[C@@H](CCCCN)C(=O)N[C@@H](CCCCN)C(=O)N[C@@H](Cc1c[nH]c2ccccc12)C(=O)N[C@@H](Cc1ccc(O)cc1)C(=O)N[C@@H](CCCCN)C(=O)N[C@@H](C)C(=O)NCC(=O)N[C@@H](CCCCN)C(N)=O [RIVQRIAKWAKKWYKAGK]

MIC (Micrococcus luteus A270): 1.56 µM (≈ 2.01 µg/mL) | MIC (Escherichia coli SBS 363): 12.5 µM (≈ 16.1 µg/mL) | MIC (Candida albicans MDM8): 1.56 µM (≈ 2.01 µg/mL)
Compound: CC[C@H](C)[C@H](NC(=O)[C@H](CC(C)C)NC(=O)[C@H](CCCCN)NC(=O)[C@H](CCCN=C(N)N)NC(=O)[C@H](Cc1ccccc1)NC(=O)[C@H](CC(C)C)NC(=O)[C@H](CO)NC(=O)[C@H](CC(C)C)NC(=O)[C@H](CC(C)C)NC(=O)[C@@H](N)CO)C(=O)N[C@H](C(N)=O)[C@@H](C)O [SLLSLFRKLIT]

MIC [5]: 8 µM (≈ 23.6 µg/mL) | MIC [6]: 16 µM (≈ 47.2 µg/mL) | MIC [7]: 8 µM (≈ 23.6 µg/mL)
Compound: CC[C@H](C)[C@H](N)C(=O)N[C@@H](C)C(=O)N[C@@H](CCCN=C(N)N)C(=O)N[C@@H](CCCN=C(N)N)C(=O)N[C@@H](CC(N)=O)C(=O)N[C@@H](CC(C)C)C(=O)N[C@@H](CS)C(=O)N[C@@H](C)C(=O)N[C@@H](CO)C(=O)N[C@@H](CC(C)C)C(=O)N[C@@H](CCCN=C(N)N)C(=O)N[C@@H](C)C(=O)N[C@@H](CCCN=C(N)N)C(=O)N[C@@H](Cc1cnc[nH]1)C(=O)N[C@H](C(=O)N[C@H](C(=O)N1CCC[C@H]1C(=O)N[C@@H](CCC(N)=O)C(=O)N[C@@H](CS)C(=O)N[C@@H](CCCCN)C(=O)N[C@@H](CCCCN)C(=O)N[C@@H](Cc1ccccc1)C(=O)NCC(=O)N[C@@H](CCCN=C(N)N)C(=O)N[C@@H](CCCN=C(N)N)C(N)=O)[C@@H](C)CC)[C@@H](C)O [IARRNLCASLRARHTIPQCKKFGRR]
